Source: patent publication US10028960B2, “Pyrimidine compounds as JAK kinase inhibitors” (THERAVANCE BIOPHARMA R&D IP, LLC, priority 2016, dated 2018)

Key:
JAK1 = JAK1 (Homo sapiens (Human), UniProt P23458); assay: LanthaScreen JAK biochemical assay, JAK1; details: for Ki: read-out: JAK 1 (pKi) (converted)
Method: A panel of four LanthaScreen JAK biochemical assays (JAK1, 2, 3 and Tyk2) were carried in a common kinase reaction buffer (50 mM HEPES, pH 7.5, 0.01% Brij-35, 10 mM MgCl2, and 1 mM EGTA). Recombinant GST-tagged JAK enzymes and a GFP-tagged STAT1 peptide substrate were obtained from Life Technologies.

[1] = test system: IL-13 induced STAT6 phosphorylation in HT-29 human colorectal adenocarcinoma cells; assay: Cellular JAK potency assay: inhibition of IL-13 induced STAT6 phosphorylation; assay type: cell-based; details: IL-13 induced STAT6 phosphorylation, HT-29 cells; for IC50: Homo sapiens, read-out: HT-29 (pIC50) (converted)
Method: The potency of test compounds for inhibition of the JAK-dependent cytokine interleuken-13 (IL-13) was assessed by measuring IL-13 (IL-13, R&D Systems) induced STAT6 phosphorylation in HT-29 human colorectal adenocarcinoma cells (ATCC).
The anti-STAT6 antibody (Cell Signaling Technologies) was conjugated to AlphaScreen acceptor beads (Perkin Elmer), while the anti-pSTAT6 (pTyr641) antibody (Cell Signaling Technologies) was biotinylated using EZ-Link Sulfo-NHS-Biotin (Thermo Scientific).
HT-29 cells were grown at 37° C. in a 5% CO2 humidified incubator in McCoy's 5a Modified medium (ATCC) supplemented with 10% FBS (Hyclone), 100 U/mL penicillin, 100 μg/mL streptomycin (Life Technologies), and 2 mM GlutaMAX (Life Technologies). On day 1 of the assay, cells were seeded at a 7,500 cells/well density in white poly-D-lysine-coated 384-well plates (Corning) with 25 μL medium, and were allowed to adhere overnight in the incubator. On day 2 of the assay, the medium was removed and replaced with 12 μL of assay buffer (Hank's Balanced Salt Solution/HBSS, 25 mM HEPES, and 1 mg/ml bovine serum albumin/BSA) containing dose-responses of test compounds. Compounds were serially diluted in DMSO and then diluted another 1000-fold in media to bring the final DMSO concentration to 0.1%. Cells were incubated with test compounds at 37° C. for 1 h, and followed by the addition of 12 μL of pre-warmed IL-13 (12 ng/ml in assay buffer) for stimulation. After incubating at 37° C. for 30 min, the assay buffer (containing compound and IL-13) was removed, and 10 μL of cell lysis buffer (25 mM HEPES, 0.1% SDS, 1% NP-40, 5 mM MgCl2, 1.3 mM EDTA, 1 mM EGTA, and supplement with Complete Ultra mini protease inhibitors and PhosSTOP from Roche Diagnostics). The plates were shaken at ambient temperature for 30 min before the addition of detection reagents. A mixture of biotin-anti-pSTAT6 and anti-STAT6 conjugated acceptor beads was added first and incubated at ambient temperature for 2 h, followed by the addition of streptavidin conjugated donor beads (Perkin Elmer). After a minimum of 2 h incubation, the assay plates were read on the EnVision plate reader.
Results were expressed as the negative logarithm of the IC50 value, pIC50.

Chain of JAK1 (P23458 whole entry): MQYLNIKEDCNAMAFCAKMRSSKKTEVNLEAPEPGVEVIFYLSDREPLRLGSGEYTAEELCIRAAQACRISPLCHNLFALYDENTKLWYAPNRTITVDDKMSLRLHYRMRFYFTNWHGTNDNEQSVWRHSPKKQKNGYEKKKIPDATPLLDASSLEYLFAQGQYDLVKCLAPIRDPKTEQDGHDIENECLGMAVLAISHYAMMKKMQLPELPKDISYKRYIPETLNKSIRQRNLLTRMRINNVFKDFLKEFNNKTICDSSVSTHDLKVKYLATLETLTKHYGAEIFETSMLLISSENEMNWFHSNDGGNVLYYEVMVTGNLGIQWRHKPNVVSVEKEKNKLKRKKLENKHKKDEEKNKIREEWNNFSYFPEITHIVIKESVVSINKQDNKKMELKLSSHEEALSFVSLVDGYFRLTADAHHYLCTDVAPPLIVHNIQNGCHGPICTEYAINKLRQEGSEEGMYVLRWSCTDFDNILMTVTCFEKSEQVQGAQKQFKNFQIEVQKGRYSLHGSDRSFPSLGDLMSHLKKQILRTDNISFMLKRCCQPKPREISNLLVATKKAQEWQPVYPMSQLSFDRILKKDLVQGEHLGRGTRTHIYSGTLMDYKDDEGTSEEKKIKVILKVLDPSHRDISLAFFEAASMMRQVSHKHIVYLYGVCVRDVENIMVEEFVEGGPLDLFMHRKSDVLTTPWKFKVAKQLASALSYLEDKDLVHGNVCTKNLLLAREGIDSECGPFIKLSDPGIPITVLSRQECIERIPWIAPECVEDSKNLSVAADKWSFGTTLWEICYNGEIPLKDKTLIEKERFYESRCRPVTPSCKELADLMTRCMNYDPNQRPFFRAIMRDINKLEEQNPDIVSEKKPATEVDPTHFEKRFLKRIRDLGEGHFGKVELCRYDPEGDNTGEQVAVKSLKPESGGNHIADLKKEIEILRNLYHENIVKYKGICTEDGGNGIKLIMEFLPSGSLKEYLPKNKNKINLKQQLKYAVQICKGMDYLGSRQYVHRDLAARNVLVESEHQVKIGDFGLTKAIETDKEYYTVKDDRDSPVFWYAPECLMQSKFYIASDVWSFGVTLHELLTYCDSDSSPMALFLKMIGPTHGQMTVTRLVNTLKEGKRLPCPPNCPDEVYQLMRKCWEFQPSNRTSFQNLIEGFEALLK

Row | Structure (SMILES) | JAK 1 (pKi) (JAK1) | HT-29 (pIC50) [1] | Ki (JAK1) [nM] | IC50 [1] [nM]
1 | CCS(=O)(=O)N1[C@@H]2CCC[C@H]1C[C@H](Nc1nc(Nc3cc(CO)[nH]n3)cc(OC)n1)C2 [Example 1-9, (3-((2-(((1R,3s,5S)-9-(ethylsulfonyl)-9-azabicyclo[3.3.1]nonan-3-yl)amino)-6-methoxypyrimidin-4-yl)amino)-1H-pyrazol-5-yl)methanol] | B (B represents a pKi value between 9 and 10 (Ki between 1 nM and 0.1 nM)) | B (B represents a pIC50 value between 6.7 and 7.5 (IC50 between 200 nM and 32 nM)) | – | –
2 | COc1cc(Nc2cc(CO)[nH]n2)nc(N[C@@H]2C[C@H]3CCC[C@@H](C2)N3S(=O)(=O)c2cncc(F)c2)n1 [Example 1-7, (3-((2-(((1R,3s,5S)-9-((5-fluoropyridin-3-yl)sulfonyl)-9-azabicyclo[3.3.1]nonan-3-yl)amino)-6-methoxypyrimidin-4-yl)amino)-1H-pyrazol-5-yl)methanol] | B (B represents a pKi value between 9 and 10 (Ki between 1 nM and 0.1 nM)) | – | – | –
3 | COc1cc(Nc2cc(CO)[nH]n2)nc(N(C)[C@@H]2C[C@H]3CCC[C@@H](C2)N3S(=O)(=O)CC2CC2)n1 [Example 1-18, (3-((2-(((1R,3s,5S)-9-((cyclopropylmethyl)sulfonyl)-9-azabicyclo[3.3.1]nonan-3-yl)(methyl)amino)-6-methoxypyrimidin-4-yl)amino)-1H-pyrazol-5-yl)methanol] | B (B represents a pKi value between 9 and 10 (Ki between 1 nM and 0.1 nM)) | – | – | –
4 | COc1cc(Nc2cc(CO)[nH]n2)nc(N[C@@H]2C[C@H]3CC[C@@H](C2)N3S(=O)(=O)N2CCC2)n1 [Example 1-1] | – | – | 1 to 10 | 31.6 to 200
5 | COc1cc(Nc2cc(CO)[nH]n2)nc(N[C@@H]2C[C@H]3CCC[C@@H](C2)N3S(=O)(=O)CC2CC2)n1 [Example 1-10, (3-((2-(((1R,3s,5S)-9-((cyclopropylmethyl)sulfonyl)-9-azabicyclo[3.3.1]nonan-3-yl)amino)-6-methoxypyrimidin-4-yl)amino)-1H-pyrazol-5-yl)methanol] | B (B represents a pKi value between 9 and 10 (Ki between 1 nM and 0.1 nM)) | – | – | –
6 | COc1cc(Nc2cc(CO)[nH]n2)nc(N(C)[C@@H]2C[C@H]3CCC[C@@H](C2)N3Cc2ccncc2)n1 [Example 2-7, (3-((6-methoxy-2-(methyl((1R,3s,5S)-9-(pyridin-4-ylmethyl)-9-azabicyclo[3.3.1]nonan-3-yl)amino)pyrimidin-4-yl)amino)-1H-pyrazol-5-yl)methanol] | B (B represents a pKi value between 9 and 10 (Ki between 1 nM and 0.1 nM)) | B (B represents a pIC50 value between 6.7 and 7.5 (IC50 between 200 nM and 32 nM)) | – | –
7 | COc1cc(Nc2cc(CO)[nH]n2)nc(N[C@@H]2C[C@H]3CCC[C@@H](C2)N3S(=O)(=O)N2CCC2)n1 [Example 1-5, (3-((2-(((1R,3s,5S)-9-(azetidin-1-ylsulfonyl)-9-azabicyclo[3.3.1]nonan-3-yl)amino)-6-methoxypyrimidin-4-yl)amino)-1H-pyrazol-5-yl)methanol] | B (B represents a pKi value between 9 and 10 (Ki between 1 nM and 0.1 nM)) | B (B represents a pIC50 value between 6.7 and 7.5 (IC50 between 200 nM and 32 nM)) | – | –
8 | COc1cc(Nc2cc(CO)[nH]n2)nc(N[C@@H]2C[C@H]3CCC[C@@H](C2)N3S(=O)(=O)c2ccccc2)n1 [Example 1-8, (3-((6-methoxy-2-(((1R,3s,5S)-9-(phenylsulfonyl)-9-azabicyclo[3.3.1]nonan-3-yl)amino)pyrimidin-4-yl)amino)-1H-pyrazol-5-yl)methanol] | A (A represents a pKi value≥10 (Ki≤0.1 nM)) | A (A represents a pIC50 value≥7.5 (IC50≤32 nM)) | – | –
9 | COc1cc(Nc2cc(CO)[nH]n2)nc(N[C@@H]2C[C@H]3CCC[C@@H](C2)N3Cc2ccc(C#N)nc2)n1 [Example 6, 5-(((1R,3s,5S)-3-((4-((5-(hydroxymethyl)-1H-pyrazol-3-yl)amino)-6-methoxypyrimidin-2-yl)amino)-9-azabicyclo[3.3.1]nonan-9-yl)methyl)picolinonitrile] | – | – | 0.1 to 1 | –
10 | COc1cc(Nc2cc(CO)[nH]n2)nc(N[C@@H]2C[C@H]3CCC[C@@H](C2)N3S(=O)(=O)c2cccnc2)n1 [Example 1-11, (3-((6-methoxy-2-(((1R,3s,5S)-9-(pyridin-3-ylsulfonyl)-9-azabicyclo[3.3.1]nonan-3-yl)amino)pyrimidin-4-yl)amino)-1H-pyrazol-5-yl)methanol] | B (B represents a pKi value between 9 and 10 (Ki between 1 nM and 0.1 nM)) | B (B represents a pIC50 value between 6.7 and 7.5 (IC50 between 200 nM and 32 nM)) | – | –
11 | COc1cc(Nc2cc(CO)[nH]n2)nc(N(C)[C@@H]2C[C@H]3CCC[C@@H](C2)N3S(=O)(=O)c2cncc(F)c2)n1 [Example 1-19, (3-((2-(((1R,3s,5S)-9-((5-fluoropyridin-3-yl)sulfonyl)-9-azabicyclo[3.3.1]nonan-3-yl)(methyl)amino)-6-methoxypyrimidin-4-yl)amino)-1H-pyrazol-5-yl)methanol] | B (B represents a pKi value between 9 and 10 (Ki between 1 nM and 0.1 nM)) | A (A represents a pIC50 value≥7.5 (IC50≤32 nM)) | – | –
12 | COc1cc(Nc2cc(CO)[nH]n2)nc(N[C@@H]2C[C@H]3CCC[C@@H](C2)N3S(=O)(=O)N2CC(C#N)C2)n1 [Example 1-6, 1-(((1R,3s,5S)-3-((4-((5-(hydroxymethyl)-1H-pyrazol-3-yl)amino)-6-methoxypyrimidin-2-yl)amino)-9-azabicyclo[3.3.1]nonan-9-yl)sulfonyl)azetidine-3-carbonitrile] | A (A represents a pKi value≥10 (Ki≤0.1 nM)) | B (B represents a pIC50 value between 6.7 and 7.5 (IC50 between 200 nM and 32 nM)) | – | –
13 | COc1cc(Nc2cc(CO)[nH]n2)nc(N[C@@H]2C[C@H]3CCC[C@@H](C2)N3Cc2cccnc2)n1 [Example 2-4, (3-((6-methoxy-2-(((1R,3s,5S)-9-(pyridin-3-ylmethyl)-9-azabicyclo[3.3.1]nonan-3-yl)amino)pyrimidin-4-yl)amino)-1H-pyrazol-5-yl)methanol] | B (B represents a pKi value between 9 and 10 (Ki between 1 nM and 0.1 nM)) | B (B represents a pIC50 value between 6.7 and 7.5 (IC50 between 200 nM and 32 nM)) | – | –
14 | COc1cc(Nc2cc(CO)[nH]n2)nc(N(C)C2C[C@H]3CCC[C@@H](C2)N3C(=O)C(F)F)n1 (stereo partly drawn) [Example 9, 2,2-difluoro-1-((1R,3s,5S)-3-((4-((5-(hydroxymethyl)-1H-pyrazol-3-yl)amino)-6-methoxypyrimidin-2-yl)(methyl)amino)-9-azabicyclo[3.3.1]nonan-9-yl)ethan-1-one] | – | – | – | 31.6 to 200
15 | COc1cc(Nc2cc(CO)[nH]n2)nc(N[C@@H]2C[C@H]3CC[C@@H](C2)N3S(=O)(=O)N2CC(C#N)C2)n1 [Example 1-2] | – | – | 0.1 to 1 | 200 to 1000
16 | COc1cc(Nc2cc(CO)[nH]n2)nc(N[C@@H]2C[C@H]3CCC[C@@H](C2)N3C(=O)C(F)F)n1 [Example 3-1, 2,2-difluoro-1-((1R,3s,5S)-3-((4-((5-(hydroxymethyl)-1H-pyrazol-3-yl)amino)-6-methoxypyrimidin-2-yl)amino)-9-azabicyclo[3.3.1]nonan-9-yl)ethan-1-one] | B (B represents a pKi value between 9 and 10 (Ki between 1 nM and 0.1 nM)) | – | – | –
17 | COc1cc(Nc2cc(CO)[nH]n2)nc(N[C@@H]2C[C@H]3CC[C@@H](C2)N3S(=O)(=O)c2ccccc2)n1 [Example 1-4] | – | – | 10 to 31.6 | –
